Values joined by “and” are separate entries in the source; they are usually repeats but may differ in a detail not shown here. Equal entries are not always repeated.

The values that follow come from paper PMC10518255, “A first-in-class pan-lysyl oxidase inhibitor impairs stromal remodeling and enhances gemcitabine response and survival in pancreatic cancer” (Nature Cancer, 2023).

The subject of experiment [1] is PDGFR-β. The experiment is described as follows: Immunohistochemistry of end-point KPC tumors: panCAF marker. Particulars: for Percent coverage of PDGFR-ß positive staining: Extended Data 6C, KPC tumours at endpoint, individual FOV. The class given is in vivo, mouse. As to the method:
All tissues or matrices, including patient TMAs, were fixed in 10% buffered formalin and embedded in paraffin. The 4-μm sections of samples were deparaffinized with xylene and rehydrated in graded ethanol washes. For immunohistochemistry, Bond Dewax Solution (AR9222) was used. Antigen retrieval was performed using Bond RX H2(30) protocol: HIER 30 min ER1 (citrate pH 6) OR ER2 (EDTA pH 9) at 100 °C. Slides were quenched in BOND Polymer Refine Detection (Leica Biosystems DS9800). […] Slides were digitized on an Aperio slide scanner and representative areas per tumor acquired and analyzed by researchers blinded to the conditions of the experiment.
Extended Data Fig. 6 PXS-5505 in combination with gemcitabine in a KPC model. a. Quantification of proliferating cells (Ki67 positive nuclear staining) in KPC tumors at end point, treated as indicated. 5 fields of view (500 μm × 500 μm) per mouse and 10 mice per cohort were scored. […] Quantification of percent coverage of αSMA positive staining in KPC tumors at end point, treated as indicated. 3 fields of view (1000 μm × 1000 μm) per mouse and 10 mice per cohort were scored. […] Quantification of percent coverage of PDGFR-ß positive staining in KPC tumors at end point, treated as indicated. 3 fields of view (1000 μm × 1000 μm) per mouse and 10 mice per cohort were scored. […] Quantification of pMLC2 positive staining in stromal regions of KPC tumors at end point, treated as indicated. 3 fields of view (500 μm × 500 μm) per mouse and 10 mice per cohort were scored. […] Quantification of tumor vasculature (CD31 positive staining) in KPC tumors at end point, treated as indicated. 3 fields of view (1000 μm × 1000 μm) per mouse and 10 mice per cohort were scored. […] Quantification of STAT3 activation (pSTAT3 positive nuclear staining) in KPC tumors at end point, treated as indicated. 3 fields of view (1000 μm × 1000 μm) per mouse and 5 mice per cohort were scored. […] Scale bars = 100 μm. g Quantification of macrophage infiltration (F4/80 positive staining) in KPC tumors at end point, treated as indicated. […]

Experiment [2] deals with TKCC10 human PDX tumors. The experiment is described as follows: TKCC10 human model survival study (Extended Data Fig. 5k). The class given is in vivo, mouse. As to the method: Subcutaneous PDX studies were performed by implanting early passage PDX pieces (~4 mm^3) or TKCC10 CCs (1.5 × 10^6 cells per mouse in 100 μl PBS/Matrigel 1:1) into female (PDX) or male (TKCC10) 8-week-old immunocompromised nude Balb/c-Fox1nuAusb mice subcutaneously on the left flank. For the duration of the study, mice were kept in conventional caging with environmental enrichment, access to standard chow, water ad libitum and 12-h light–dark cycle at ambient temperature and humidity. […] Tumor size was monitored every second day by calipers. Tumor volume was calculated using the formula (length × width^2)/2. […]
Extended Data Fig. 5 PXS-5505 in combination with gemcitabine in vivo. a. […] Signal is defined as the enzyme activity in the aorta, while noise is measured in the presence of a high concentration (300 µM) BAPN to abolish any lysyl oxidase family activity. […] FITC-dextran (molecular weight: 10 kDa) signal quantification from KPC tumor end point from each treatment group (vehicle n = 3 biologically independent animals, PXS-5505 n = 5 biologically independent animals, Gem n = 5 biologically independent animals, PXS-5505 + Gem n = 5 biologically independent animals). […] P-values determined by Welchs t-test. […] Quantification of red birefringent (mature) collagen fibers from human PDXs at end point after 3 cycles of treatment, treated as indicated. […]

For `Cl.Cl.NC/C=C(\F)CS(=O)(=O)c1cccc2cccnc12.O` [PXS-5505, (Z)-3-fluoro-4-(quinolin-8-ylsulfonyl)but-2-en-1-amine dihydrochloride monohydrate], the “Percent coverage of PDGFR-ß positive staining” value in experiment [1] was 6.765% and 8.3993% and 2.8629% and 12.2376% and 9.6982% and 4.3212% and 4.8524% and 9.496% and 7.1445% and 8.9357% and 7.1025% and 17.1234% and 12.5648% and 3.0699% and 20.4926% and 2.5465% and 8.2725% and 3.1151% and 4.1221% and 5.7763% and 4.8975% and 4.1951% and 11.8569% and 14.757% and 1.2435% and 4.7314% and 2.3407% and 3.9912% and 1.8413% and 6.5811%. Besides, in experiment [2], the “median survival (time under treatment after tumor reached 50 mm^3)” value worked out at 16 days.

As to `Nc1ccn([C@@H]2O[C@H](CO)[C@@H](O)C2(F)F)c(=O)n1` [Gem, gemcitabine], the “Percent coverage of PDGFR-ß positive staining” value in experiment [1] was 7.4938% and 2.1875% and 12.1122% and 4.282% and 6.095% and 3.1691% and 15.1145% and 8.8619% and 8.0756% and 17.8714% and 24.3073% and 20.1172% and 13.2929% and 10.304% and 12.3137% and 10.967% and 18.634% and 4.9424% and 8.9111% and 7.7908% and 2.017% and 14.5457% and 8.9344% and 10.6658% and 5.631% and 1.6247% and 8.4484% and 0.5673% and 1.2057% and 0.8465%. In addition, the PDGFR-β positivity entry in experiment [1] (KPC tumors at end point) is “small decreases in positivity”. The “median survival (time under treatment after tumor reached 50 mm^3)” value in experiment [2] is 29 days.
